In PubChem BioAssay AID1645866 (Buhrlage Lab, Dana-Farber Cancer Institute and Novartis …, 2021):
The source made the active and inactive calls.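 How the source made its calls: active means in confirmatory dose-response testing, peak deubiquitinase inhibition of 30% or more; inactive means the rest.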 Positions of bridges follow the written chain, without caps; N, C: chain ends. Residues, ends and D or L forms follow the SMILES beside them. ξ: configuration not given here. *: point of attachment. Pentadecanoyl(3ξ-OH,15-Gua) = N=C(N)NCCCCCCCCCCCCC(O)CC(=O)*

target: Ubiquitin carboxyl-terminal hydrolase 28 (Homo sapiens) (UniProt Q96RU2); experiment: Concentration-response biochemical assay confirming initial hits as inhibitors of ubiquitin-specific protease 28 (AID 1645866); conditions: purified USP28, ubiquitin-rhodamine fluorescence, 30 min
Sequence (Q96RU2 whole entry, looked up): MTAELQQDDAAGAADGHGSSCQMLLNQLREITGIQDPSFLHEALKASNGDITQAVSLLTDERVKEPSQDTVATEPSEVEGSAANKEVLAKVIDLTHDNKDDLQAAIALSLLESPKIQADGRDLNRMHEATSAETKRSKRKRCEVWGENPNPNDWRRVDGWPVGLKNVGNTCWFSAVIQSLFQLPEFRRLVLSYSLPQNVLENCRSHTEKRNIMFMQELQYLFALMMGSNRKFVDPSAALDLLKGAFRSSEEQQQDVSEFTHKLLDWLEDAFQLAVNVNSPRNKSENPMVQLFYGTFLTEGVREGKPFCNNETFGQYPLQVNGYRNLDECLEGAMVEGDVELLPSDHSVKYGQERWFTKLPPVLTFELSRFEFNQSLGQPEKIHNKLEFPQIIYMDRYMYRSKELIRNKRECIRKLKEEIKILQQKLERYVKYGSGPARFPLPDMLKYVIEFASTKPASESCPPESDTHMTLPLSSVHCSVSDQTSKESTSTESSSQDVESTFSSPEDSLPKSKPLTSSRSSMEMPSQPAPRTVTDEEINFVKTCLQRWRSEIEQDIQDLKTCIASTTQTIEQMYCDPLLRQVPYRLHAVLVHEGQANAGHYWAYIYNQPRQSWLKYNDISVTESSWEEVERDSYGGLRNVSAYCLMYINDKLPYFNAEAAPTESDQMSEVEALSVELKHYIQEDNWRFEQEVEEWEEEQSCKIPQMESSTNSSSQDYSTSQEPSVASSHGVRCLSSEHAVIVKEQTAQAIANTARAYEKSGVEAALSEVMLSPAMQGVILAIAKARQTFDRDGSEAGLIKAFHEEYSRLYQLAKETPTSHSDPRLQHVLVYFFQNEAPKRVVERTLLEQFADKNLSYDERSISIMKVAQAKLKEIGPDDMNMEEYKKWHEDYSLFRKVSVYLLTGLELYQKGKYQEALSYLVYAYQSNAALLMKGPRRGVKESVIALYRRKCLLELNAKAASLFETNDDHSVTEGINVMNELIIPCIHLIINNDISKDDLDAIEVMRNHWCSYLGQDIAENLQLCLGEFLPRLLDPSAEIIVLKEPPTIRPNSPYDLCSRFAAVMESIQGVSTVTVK

Row | IC50 | SMILES
1 | 13 µM | O=C1C/C(=C\c2cccc(Cl)c2)Cc2ccccc21
2 | 1.31 µM | Cc1cccc(NC(=O)Cn2cnc(-c3noc(-c4ccccc4)n3)c2)c1C
3 | 4.07 µM | CCc1ccc(NC(=O)Cc2nnc3cc(-c4nc(C)no4)ccn23)cc1
4 | 13.6 µM | CCN(CCCNC(=O)c1ccc(Cn2c(=O)[nH]c3ccccc3c2=O)cc1)c1ccccc1
5 | 25.1 µM | COc1ccccc1NC(=O)c1nn(-c2cccc(F)c2)c(OC)cc1=O
6 | 29.5 µM | O=C(Cn1c(=O)n(Cc2ccc(F)cc2)c(=O)c2ncccc21)Nc1ccccc1
7 | 25.3 µM | O=C(NCCCc1nc2ccccc2n1Cc1c(Cl)cccc1Cl)c1ccco1
8 | > 50 µM (inactive) | Cc1ncncc1C(=O)N1CCCC(C)(c2ncc(Cc3cccc(F)c3)o2)C1 (stereo not given)
9 | 37.6 µM | COc1ccc(C(=O)Nc2ccccc2C(=O)NCc2ccccc2)cc1
10 | 5.37 µM | Nc1c(C(=O)NCc2ccc3c(c2)OCO3)nnn1Cc1ccc(Br)cc1F
11 | > 50 µM (inactive) | CCOC(=O)c1cc2c(ccn2C)n1CC(=O)N1CCC(C)CC1
12 | 20.8 µM | COc1ccc(NC(=O)Cn2c(CSc3ccc(C)cc3)nc3ccccc32)cc1
13 | 16.1 µM | CCOc1ccc(CCNC(=O)c2cccc3c2C(=O)N(CCOC)C3)cc1OCC
14 | 41.9 µM | N#Cc1cc(C(=O)c2ccc(Cl)cc2)c[nH]1
15 | 33.9 µM | COC(=O)c1ccc(NC(=O)CSc2nnc(-c3ccc(O)cc3)n2Cc2ccco2)cc1
16 | 4.01 µM | CCOc1ccc(NC(=O)Cn2c(=O)n(CCC(=O)NCc3ccccc3OC)c(=O)c3ccccc32)cc1
17 | > 50 µM (inactive) | CC(C)N1C[C@@H]2C[C@H](NS(=O)(=O)c3cccc(C#N)c3)CN2Cc2ccccc21
18 | 7.07 µM | O=C(NCc1ccc2c(c1)OCO2)c1cc2c(s1)-c1ccccc1OC2
19 | 17.2 µM | CN1CCC(N(C)S(=O)(=O)c2ccc(NC(=O)c3cccc(OCc4ccccc4)c3)cc2)CC1
20 | 26.5 µM | CCn1cc(-c2nc(-c3ccccn3)no2)c(=O)c2cc(F)ccc21
21 | 16.7 µM | Cc1ccc(Nc2nc(O)c(CC(=O)Nc3ccccc3C)s2)cc1C
22 | 2.98 µM | O=C(CCc1nnc2n(Cc3ccccc3)c(=O)c3ccccc3n12)N1CCN(c2ccccn2)CC1
23 | > 50 µM (inactive) | CC(=O)NCc1nc(-c2ccc3c(c2)nc(C)c(=O)n3C2CCCC2)no1

Row | IC50 | SMILES
24 | > 50 µM (inactive) | C=C1CCC2[C@](C)(CCC[C@]2(C)C(=O)OC)[C@H]1CCc1ccoc1CNC(C)C (stereo not given in full)
25 | 19.6 µM | N#Cc1ccccc1Cn1c(=O)n(CCCCC(=O)NCCc2ccccc2)c(=O)c2ccccc21
26 | 20.3 µM | O=C(Nc1cccc(C(F)(F)F)c1)N1CCCn2c(nc3ccccc32)C1
27 | 17 µM | CCOC(=O)c1c(C)oc2nc(CSc3ccccc3)[nH]c(=O)c12
28 | > 50 µM (inactive) | Cc1ccc(NC(=O)c2cc(=O)n(C)c3c2c(=O)n(C)c(=O)n3C)c(C)c1
29 | 5.75 µM | CSc1ccccc1NC(=O)c1ccc(-n2cccn2)nn1
30 | 19.9 µM | NS(=O)(=O)c1ccc(CNS(=O)(=O)c2ccc(-c3ccccn3)s2)cc1
31 | 2.19 µM | O=[N+]([O-])c1ccc(NCc2ccc(-c3cccs3)s2)nc1
32 | 24.9 µM | C=C(NC(=O)C(=C)NC(=O)c1csc(-c2ccc3c(n2)-c2csc(n2)-c2csc(n2)C(C(C)C2CO2)NC(=O)C(Cc2ccc(O)cc2)NC(=O)c2csc(n2)C(C(O)c2ccccc2)NC(=O)c2nc(sc2C)C(CC(N)=O)NC(=O)c2csc-3n2)n1)C(=O)O (stereo not given)
33 | 40.9 µM | COc1ccccc1-c1nc2c3c(ncn2n1)Oc1c(c(C)nn1-c1ccccc1)C3c1cccnc1 (stereo not given)
34 | > 50 µM (inactive) | O=C(COc1nsnc1N1CCOCC1)Nc1ccc(F)c(F)c1
35 | 41.6 µM | CCOc1ccccc1C(=O)Nc1ccc2c(c1)Sc1ncccc1C(=O)N2C
36 | 7.18 µM | O=C(Nc1ccc2c(c1)OCCO2)c1ccc(N2CCCC2=O)cc1
37 | 16.2 µM | Cc1ccc(NC(=O)/C=C/c2cccc(C(F)(F)F)c2)c(O)c1
38 | > 50 µM (inactive) | CCc1nc(-c2cc(C(=O)N3CCOCC3)c3ccccn23)cs1
39 | 1.72 µM | COc1ccc(C(=O)Nc2nc(-c3ccc4c(c3)NC(=O)CO4)c(C)s2)cc1OC
40 | > 50 µM (inactive) | Cc1ccccc1NC(=O)c1ccc(N2CCCCC2)nn1
41 | 2.33 µM | CC(C)=CCC/C(C)=C/Cc1c(O)cc2c(c1O)C(=O)OC2
42 | > 50 µM (inactive) | Cc1ccc2c(c1)-c1c(c(C(=O)N3CCN(c4ccccc4)CC3)nn1C)CS2
43 | > 50 µM (inactive) | CC(=O)c1cccc(NC(=O)c2ccc3[nH]c4c(c3c2)CC(C)CC4)c1 (stereo not given)
44 | 29.3 µM | O=C1CC(C(=O)Nc2ccc(F)cc2)n2nc(SCc3ccccc3)nc2N1 (stereo not given)
45 | 49.8 µM | N#Cc1ccc(Cl)cc1NC(=O)COc1cccnc1[N+](=O)[O-]
46 | 0.233 µM | COc1ccc2cc3c(nc2c1)OC(=O)N(CCc1cccc(F)c1)C3

Row | IC50 | SMILES
47 | 21.2 µM | O=C(Nc1cccc(S(=O)(=O)N2CCCC2)c1)c1ccc2c(=O)n3c(nc2c1)CCCCC3
48 | 7.27 µM | Cc1cc(N2CCN(c3ncccn3)CC2)nc2ccc(NC(=O)c3ccncc3)cc12
49 | 20.3 µM | COc1ccc2c(c1)CCc1c(C(=O)NCc3cccnc3)noc1-2
50 | 10.8 µM | CC(=O)Nc1ccc(NC(=O)c2cc(-c3cc(C)cc(C)c3O)n[nH]2)cc1
51 | 18.9 µM | COc1ccc(N(CC(=O)Nc2cccc(F)c2)S(=O)(=O)c2ccc(OC)c(OC)c2)cc1
52 | > 50 µM (inactive) | Cc1ccc(S(=O)(=O)Nc2ccccc2SCCS(=O)(=O)c2ccc(Cl)cc2)cc1
53 | 18.8 µM | CC(=O)c1sc(NC(=O)c2ccccc2-c2ccc(C(F)(F)F)cc2)nc1C
54 | 25 µM | COc1ccc(OC)c(NC(=O)CS(=O)(=O)c2cn(CC(=O)N3CCC(C)CC3)c3ccccc23)c1
55 | > 50 µM (inactive) | CCCNc1cc(-c2ccccc2)nc2nc(-c3cccnc3)nn12
56 | > 50 µM (inactive) | O=C(NCc1ccc(Cl)cc1)c1ccc(N2CCCS2(=O)=O)cc1
57 | 31.1 µM | COc1ccc(NC(=O)c2ccc(-n3nnnc3SC)cc2)cc1Cl
58 | 23 µM | Cc1nn(-c2cc(N3CCOCC3)ncn2)c(C)c1CCC(=O)Nc1ccc(C(C)C)cc1
59 | > 5 µM (inactive) | COc1ccc2nc(Nc3ncc4c(n3)CCCC4=O)nc(C)c2c1
60 | 16.7 µM | Cc1c(C)n(-c2ccccc2)c2ncn(CC(=O)NC(C)c3ccccc3)c(=O)c12 (stereo not given)
61 | 48.4 µM | CNc1nc2c(c(=O)n1Cc1ccccc1)CN(C(=O)c1ccc(CN)cc1)CC2
62 | 26.4 µM | CCc1ccc(-n2nc(C)c3c2NC(=O)CC3C(=O)c2ccc3c(c2)OCCO3)cc1 (stereo not given)
63 | 28.5 µM | COc1ccc(OC)c(C2CC(=O)Nc3n[nH]c(-c4ccccc4)c32)c1 (stereo not given)
64 | 28.2 µM | CN(c1ccccc1)c1nc(=O)n(CC(=O)Nc2ccc3c(c2)OCCO3)c2ccccc12
65 | > 50 µM (inactive) | COc1ccc(/C=C/C(=O)N2CCc3ccccc32)cc1S(=O)(=O)N1CCOCC1
66 | 4.72 µM | CC(=O)c1ccccc1NC(=O)COc1ccc(-c2ccc(C#N)cc2)cc1
67 | 6.96 µM | O=C(C(c1ccccc1)c1ccccc1)N1CCC(c2nc3c(nnn3Cc3c(F)cccc3Cl)c(=O)[nH]2)CC1
68 | 0.423 µM | Cc1ccc(Cc2nc(-c3ccc(=O)[nH]c3)no2)cc1
69 | 26.6 µM | CC(=O)c1ccc(NC(=O)c2ccc(N3CCCCS3(=O)=O)cc2Cl)cc1

Row | IC50 | SMILES
70 | 23.4 µM | O=C(CCc1nnc2n(Cc3ccccc3Cl)c(=O)c3ccccc3n12)NCc1ccccn1
71 | 19.8 µM | CN=C(N)NCCC/C=C/CCCC(C)CC(C)C1OC(=O)/C=C/C(C)C(O)CC(O)C(C)C(O)CCC(C)C(O)CC2(O)OC(CC(OC(=O)CC(=O)O)CC(O)CC(O)C(C)C(O)/C=C/C1C)CC(O)C2O (stereo not given)
72 | 34.2 µM | O=C(COc1ccc(F)cc1)Nc1cnc(-c2ccc(Cl)cc2)nc1
73 | > 50 µM (inactive) | COC(=O)c1cc(C)sc1NC(=O)c1cccc(OC)c1OC
74 | 19.7 µM | Cc1cc(N2CCOCC2)nc2ccc(NC(=O)CCC(=O)Nc3ccc(F)cc3)cc12
75 | 40.5 µM | CC(=O)c1ccc(NC(=O)/C(=C/c2ccco2)n2nnnc2-c2ccccc2)cc1
76 | 30.9 µM | CC(C)(C)c1ccc(Cn2nnc3c(=O)[nH]c(C4CCN(S(=O)(=O)c5ccc(S(=O)(=O)NC6CC6)cc5)CC4)nc32)cc1
77 | 21.8 µM | COc1ccc(NC(=O)C2CCCN(S(=O)(=O)N3CCCCCC3)C2)cc1 (stereo not given)
78 | 12 µM | Cc1ccc(Cl)c(-n2nnc(C(=O)Nc3ccccc3C#N)c2C)c1
79 | 17 µM | O=c1[nH]c(C2CCN(S(=O)(=O)c3ccc(S(=O)(=O)NC4CCCCC4)cc3)CC2)nc2c1nnn2Cc1c(F)cccc1Cl
80 | 12.3 µM | CCc1c(C)c(C#N)c2nc3ccccc3n2c1N1CCN(C2CCCC2)CC1
81 | 1.88 µM | Cc1cccc(C)c1NC(=O)Cn1c(=O)n(CCCCC(=O)NCc2ccc3c(c2)OCO3)c(=O)c2ccccc21
82 | > 50 µM (inactive) | O=C(NCCCN1CCc2ccccc2C1)c1cc2c(s1)CS(=O)(=O)C2
83 | > 50 µM (inactive) | Cc1ccc2c(=O)c(C(=O)Nc3ccccc3)cn(CC(=O)NC3CCCCC3)c2n1
84 | 15.5 µM | O=C(CCCCn1c(=O)c2ccccc2n(Cc2ccccc2F)c1=O)NCCc1ccccc1
85 | > 50 µM (inactive) | CC(C)N1CC[C@@H]2[C@H](C1)CN2C(=O)Nc1cccc(F)c1
86 | 9.78 µM | O=C(c1ccco1)N1CCN=C1SCc1ccccc1F
87 | 3.63 µM | CC1NC(=O)C(CC(N)=O)NC(=O)C(C(C)O)NC(=O)C(Cc2ccc(O)cc2)NC(=O)C(C(C)C)NC(=O)C(NC(=O)CC(O)CCCCCCCCCCCCN=C(N)N)C(C)OC1=O (stereo not given) ({Pentadecanoyl(3ξ-OH,15-Gua)}-TVYTNA; ester 1-C; configuration not given here)
88 | 18.8 µM | O=C(Nc1cccc(-c2noc(C3CCC3)n2)c1)C1CC(=O)N(c2ccccc2)C1 (stereo not given)
89 | > 50 µM (inactive) | CC(=O)CN1CC2(CCN(Cc3ccc(F)cc3)CC2)COc2ccccc2S1(=O)=O
90 | 27 µM | Cc1cccc(Cl)c1NC(=O)Nc1ccc(NC(=O)c2ccccc2O)cc1
91 | > 50 µM (inactive) | CCOC(=O)c1sc2nc(CC(=O)OC)nc(NCc3ccco3)c2c1C

Row | SMILES | IC50
92 | CC1CC[C@@]2(NC1)O[C@H]1C[C@H]3[C@@H]4CC=C5C[C@@H](O)CC[C@]5(C)[C@H]4CC[C@]3(C)[C@H]1[C@@H]2C (stereo not given in full) | 34.3 µM
93 | CCCCCC(O)c1c(O)cc2c(c1O)C(=O)c1c(O)cc(O)cc1C2=O (stereo not given) | > 50 µM (inactive)
94 | O=C1C=CC(O)C2C1CC13SSC4(CC5C(=O)C=CC(O)C5N4C1=O)C(=O)N23 (stereo not given) | > 50 µM (inactive)
95 | COc1cccc2c1NC(=O)C21CCN(C(=O)Nc2cccc(C)c2)CC1 | 14.6 µM
